# Source: ChEMBL document CHEMBL1151967, “Cytotoxic biscembranes from the soft coral Sarcophyton glaucum” (J Nat Prod, 2009)
# Test system: HL-60
# Assay: Cytotoxicity against human HL60 cells
# Assay type: functional, cell-based
row,SMILES,IC50 [µM]
1,COC(=O)[C@]12CC(=O)[C@H](C(C)C)CC(=O)/C(C)=C/CC/C(C)=C\C(=O)[C@H]1CC(C)=C1C[C@H](O)[C@](C)(O)[C@H]3CC[C@@](C)(O)[C@H](CC/C(C)=C/[C@@H]12)O3 [BISGLAUCUMLIDE E],41
2,COC(=O)[C@]12CC(=O)/C=C(/C)CC/C=C(\C)C(=O)C[C@@H](C(C)C)C(=O)[C@H]1CC(C)=C1C[C@H](O)[C@](C)(O)[C@H]3CC[C@@](C)(O)[C@H](CC/C(C)=C/[C@@H]12)O3 [BISGLAUCUMLIDE I],44.1
3,COC(=O)[C@]12CC(=O)/C=C(\C)CC/C=C(\C)C(=O)C[C@@H](C(C)C)C(=O)[C@H]1CC(C)=C1C[C@H](OC(C)=O)[C@](C)(O)[C@H]3CC[C@@](C)(O)[C@H](CC/C(C)=C/[C@@H]12)O3 [BISGLAUCUMLIDE K],29.8
4,COC(=O)[C@]12CC(=O)[C@H](C(C)C)CC(=O)/C(C)=C/CC/C(C)=C/C(=O)[C@H]1CC(C)=C1C[C@H](O)[C@](C)(O)[C@H]3CC[C@](C)(O3)[C@@H](O)CC/C(C)=C/[C@@H]12 [BISGLAUCUMLIDE G],58
5,COC(=O)[C@]12CC(=O)[C@H](C(C)C)CC(=O)/C(C)=C\CC/C(C)=C/C(=O)[C@H]1CC(C)=C1C[C@H](OC(C)=O)[C@](C)(O)[C@H]3CC[C@@](C)(O)[C@H](CC/C(C)=C/[C@@H]12)O3 [BISGLAUCUMLIDE F],13.3
6,COC(=O)[C@]12CC(=O)[C@H](C(C)C)CC(=O)/C(C)=C/CC/C(C)=C\C(=O)[C@H]1CC(C)=C1C[C@H](O)[C@](C)(O)[C@H]3CC[C@@](C)(O3)[C@@H](O)CC/C(C)=C/[C@@H]12 [BISGLAUCUMLIDE H],47.8
